From patent US12673951B2, “Substituted pyrazoloquinazolinone compounds and application thereof” (IMPACT THERAPEUTICS (SHANGHAI), INC, priority 2019, dated 2026) come the findings set out here.

Read-outs that look alike come from different tables or passages of the source. A value given as a limit tells only on which side of the number the result lay.

Assay [1] has as its target T1, ATM enzyme (Homo sapiens, UniProt Q13315).
T1 construct: purchased Eurofins 14-933
The assay is described as follows: ATM kinase assay (HTRF). As to conditions: for inhibition at 1 µM / inhibition at 10 µM / inhibition at 100 µM / inhibition at 0.1 µM: 0.5 h, read-out: Inh (%) ATM kinase inhibition rate; for inhibition at 0.1 µM: C 0.1 μm. It counts as biochemical. The procedure:
The mixture was centrifuged at 1000 rpm for 1 minute, and reacted at room temperature away from light for 30 minutes. Then 5 μL of EDTA stop solution (250 mM) was added to stop the reaction. After 5 μL of detection mixture (Anti-phospho-p53 (ser15)-K (Cisbio, #61P08KAE, 0.084 ng/μL) and Anti-GST-d2 (Cisbio, #61GSTDLA, 5.00 ng/μL)) was finally added to each well, then incubate the plate overnight at room temperature.
Relative fluorescence ratio was calculated: Ratio665 nm/615 nm-Ratiobackground, and inhibition rate %=(1−(relative fluorescence ratio of test compound well−relative fluorescence ratio of positive control well)/(relative fluorescence ratio of negative control well−relative fluorescence ratio of positive control well))×100 was calculated. Data were analyzed using GraphPad Prism6.0, and fitted using the curve equation: Y=Bottom+(Top−Bottom)/(1+10^((Log IC50−X)×HillSlope)) and IC50 values were calculated.

In assay [2] the test system is human colon cancer cell SW620. The assay is described as follows: MTT assay, growth of SW620 cells, compounds combined with CPT-11. Format: cell-based. As to conditions: read-out: IC50, growth of SW620 combined with CPT-11. On the procedure:
The cells were seeded into 96-well cell culture plate with appropriate cell density and incubated overnight in a 37° C. 5% CO2 incubator. […] 5 μL of each concentration was added to 120 μL of medium (25 times diluted) and mixed by shaking. […] After removing the original solution, 100 μL of fresh serum-free DMEM medium containing MTT (0.5 mg/mL) was added to each well, the culture was continued. […] GraphPad Prism 6.0 was used to analyze the data. The inhibitory activity of compounds on cell proliferation was plotted based on cell viability and compound concentration.

In assay [3] the test system is human breast cancer cell MDA-MB-468. Kind of assay: MTT assay, growth of MDA-MB-468 cells. It counts as cell-based. As to conditions: read-out: IC50, growth of MDA-MB-468. The procedure:
The cells were seeded into 96-well cell culture plate with appropriate cell density and incubated overnight in a 37° C. 5% CO2 incubator. […] 5 μL of each concentration was added to 120 μL of medium (25 times diluted) and mixed by shaking. The overnight cells were taken and the culture medium was removed, 195 μL of fresh medium was added to each well, and 5 μL of diluted medium containing the corresponding concentration of the tested sample was added, respectively, and the culture plate was then placed in the 5% CO2 cell culture incubator at 37° C. for 7 days (On the fourth day, the medium containing drugs was removed and fresh medium containing drugs was added for continuous cultivation.). After removing the original solution, 100 μL of fresh serum-free DMEM medium containing MTT (0.5 mg/mL) was added to each well, the culture was continued. […] GraphPad Prism 6.0 was used to analyze the data. The inhibitory activity of compounds on cell proliferation was plotted based on cell viability and compound concentration.

Setting [4] is: Homo sapiens, SW-620, 120 h, SW620 cells, medium containing 205 nM CPT-11, 5 days, MTT.
Where [5] appears, read: Homo sapiens, 168 h, MDA-MB-468 cells, 7 days, MTT.
[6] abbreviates: Homo sapiens, MDA-MB-468, 168 h.

T1 sequence (Q13315 whole entry): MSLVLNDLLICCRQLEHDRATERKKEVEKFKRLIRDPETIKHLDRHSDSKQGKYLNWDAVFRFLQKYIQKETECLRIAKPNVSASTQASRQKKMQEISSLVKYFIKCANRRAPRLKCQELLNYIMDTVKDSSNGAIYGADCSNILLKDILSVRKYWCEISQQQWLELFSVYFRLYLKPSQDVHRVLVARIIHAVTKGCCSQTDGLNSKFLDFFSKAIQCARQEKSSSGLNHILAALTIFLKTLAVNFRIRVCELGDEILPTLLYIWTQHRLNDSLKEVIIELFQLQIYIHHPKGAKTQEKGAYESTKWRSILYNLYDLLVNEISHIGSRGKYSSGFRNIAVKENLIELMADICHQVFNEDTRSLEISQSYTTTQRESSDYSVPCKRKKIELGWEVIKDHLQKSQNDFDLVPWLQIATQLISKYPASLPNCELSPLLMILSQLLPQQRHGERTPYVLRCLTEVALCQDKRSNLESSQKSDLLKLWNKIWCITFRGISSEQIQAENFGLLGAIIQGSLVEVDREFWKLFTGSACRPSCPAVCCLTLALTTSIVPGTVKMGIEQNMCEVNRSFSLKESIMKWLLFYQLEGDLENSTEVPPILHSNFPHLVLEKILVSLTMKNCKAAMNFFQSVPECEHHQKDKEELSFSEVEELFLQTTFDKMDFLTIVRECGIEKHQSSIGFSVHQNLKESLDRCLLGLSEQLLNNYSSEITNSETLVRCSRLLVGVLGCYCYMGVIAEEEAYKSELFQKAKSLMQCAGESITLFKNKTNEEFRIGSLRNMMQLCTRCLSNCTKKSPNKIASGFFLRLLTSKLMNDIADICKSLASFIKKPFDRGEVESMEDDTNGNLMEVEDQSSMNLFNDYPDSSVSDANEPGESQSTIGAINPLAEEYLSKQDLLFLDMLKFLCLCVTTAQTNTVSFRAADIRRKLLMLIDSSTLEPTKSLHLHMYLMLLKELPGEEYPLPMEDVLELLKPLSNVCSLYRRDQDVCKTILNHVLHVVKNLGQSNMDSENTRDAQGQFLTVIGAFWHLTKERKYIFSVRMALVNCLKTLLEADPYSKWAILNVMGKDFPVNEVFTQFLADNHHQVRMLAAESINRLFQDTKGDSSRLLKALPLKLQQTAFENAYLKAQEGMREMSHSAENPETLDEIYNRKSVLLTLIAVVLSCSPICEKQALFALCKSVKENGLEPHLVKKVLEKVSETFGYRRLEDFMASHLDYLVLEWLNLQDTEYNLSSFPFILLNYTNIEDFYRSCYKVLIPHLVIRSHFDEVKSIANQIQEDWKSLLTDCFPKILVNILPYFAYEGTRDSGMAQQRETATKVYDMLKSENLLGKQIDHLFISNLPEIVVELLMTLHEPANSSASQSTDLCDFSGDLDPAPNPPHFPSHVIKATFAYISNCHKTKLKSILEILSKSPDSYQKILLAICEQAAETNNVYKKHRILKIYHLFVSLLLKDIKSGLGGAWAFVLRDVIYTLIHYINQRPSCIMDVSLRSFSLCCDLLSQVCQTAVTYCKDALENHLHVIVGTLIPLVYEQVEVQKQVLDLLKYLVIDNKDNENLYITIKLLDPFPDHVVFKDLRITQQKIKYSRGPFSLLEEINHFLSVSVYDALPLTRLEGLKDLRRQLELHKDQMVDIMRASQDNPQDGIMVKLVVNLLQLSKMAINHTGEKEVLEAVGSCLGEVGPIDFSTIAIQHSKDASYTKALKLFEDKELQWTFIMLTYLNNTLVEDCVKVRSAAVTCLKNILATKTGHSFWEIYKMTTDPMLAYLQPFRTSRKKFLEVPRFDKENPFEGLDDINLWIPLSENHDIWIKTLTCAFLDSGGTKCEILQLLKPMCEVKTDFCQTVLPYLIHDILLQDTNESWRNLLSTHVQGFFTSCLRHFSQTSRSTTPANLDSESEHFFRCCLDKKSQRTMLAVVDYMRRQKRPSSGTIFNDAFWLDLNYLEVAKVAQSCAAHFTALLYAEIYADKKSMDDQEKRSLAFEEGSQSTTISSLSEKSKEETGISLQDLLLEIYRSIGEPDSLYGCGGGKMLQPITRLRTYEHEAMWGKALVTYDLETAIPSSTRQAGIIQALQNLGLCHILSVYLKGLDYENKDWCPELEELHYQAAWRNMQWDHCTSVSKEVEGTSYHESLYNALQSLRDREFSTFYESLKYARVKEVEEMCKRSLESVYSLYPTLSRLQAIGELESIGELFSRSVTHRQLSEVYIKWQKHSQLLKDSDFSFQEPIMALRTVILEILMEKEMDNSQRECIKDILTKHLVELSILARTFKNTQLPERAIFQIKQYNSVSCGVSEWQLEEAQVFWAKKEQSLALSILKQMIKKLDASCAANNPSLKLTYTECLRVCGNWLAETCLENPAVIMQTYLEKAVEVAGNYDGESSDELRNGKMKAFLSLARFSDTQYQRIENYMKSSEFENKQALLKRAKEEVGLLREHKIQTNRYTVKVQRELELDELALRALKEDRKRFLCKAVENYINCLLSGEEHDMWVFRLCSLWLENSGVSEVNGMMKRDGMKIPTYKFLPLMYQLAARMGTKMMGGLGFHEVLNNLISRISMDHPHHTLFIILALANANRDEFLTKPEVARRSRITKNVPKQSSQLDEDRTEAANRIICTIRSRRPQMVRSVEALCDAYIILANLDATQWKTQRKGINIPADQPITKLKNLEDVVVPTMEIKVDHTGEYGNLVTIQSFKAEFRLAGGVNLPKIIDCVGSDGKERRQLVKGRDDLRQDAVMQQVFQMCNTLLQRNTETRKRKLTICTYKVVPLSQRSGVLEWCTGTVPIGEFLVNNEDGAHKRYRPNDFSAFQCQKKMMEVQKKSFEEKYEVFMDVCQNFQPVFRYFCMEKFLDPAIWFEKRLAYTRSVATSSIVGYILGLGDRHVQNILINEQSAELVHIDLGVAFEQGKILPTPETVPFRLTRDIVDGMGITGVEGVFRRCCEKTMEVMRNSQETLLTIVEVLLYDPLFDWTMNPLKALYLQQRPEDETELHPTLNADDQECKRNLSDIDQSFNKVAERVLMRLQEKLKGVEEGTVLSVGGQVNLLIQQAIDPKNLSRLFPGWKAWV

Consider `CN(C)CCCOc1ccc(-c2ccc3ncc4c(c3c2)n(C2CCOCC2)c(=O)n4C)cn1` [AZD0156, reference compound], for which the “Inh (%) ATM kinase inhibition rate” value turned out to be 90% in assay [1] (C 1 μm), 95% in assay [1] (C 10 μm) and 100% in assay [1] (C 100 μm). The IC50 in assay [2] (SW620 cells, medium containing 205 nM CPT-11, 5 days, MTT) is 9.77 nM; in assay [3] (MDA-MB-468 cells, 7 days, MTT) it was 9.87 nM.
Consider `CN(C)CCCOc1ccc(-c2ccc3ncn4[nH]c(=O)c(C5CCOCC5)c4c3c2)cn1` [Example 1, 9-(6-(3-(dimethylamino)propoxy)pyridin-3-yl)-1-(tetrahydro-2H-pyran-4-yl)pyrazolo[1,5-c]quinazolin-2(3H)-one], for which the inhibition at 1 µM in assay [1] (C 1 μm) amounted to 0%. In assay [1] (C 10 μm), the inhibition at 10 µM stood at 23%. Moreover, the inhibition at 100 µM in assay [1] (C 100 μm) turned out to be 69%. Further, the IC50 in assay [2] (setting [4]) was over 1000 nM; in assay [3] (setting [5]), 231 nM.
Turning to `CN(C)CCCOc1ccc(-c2ccc3ncn4c(c(C5CCOCC5)c(=O)n4C)c3c2)cn1` [Example 2, 9-(6-(3-(dimethylamino)propoxy)pyridin-3-yl)-3-methyl-1-(tetrahydro-2H-pyran-4-yl)pyrazolo[1,5-c]quinazolin-2(3H)-one], the inhibition at 1 µM in assay [1] (C 1 μm) is 87%. For the same molecule, the inhibition at 10 µM in assay [1] (C 10 μm) turned out to be 96%. Also, the inhibition at 100 µM in assay [1] (C 100 μm) was determined as 100%. Besides, the concentration for half-maximal inhibition (IC50) in assay [2] (setting [4]) is 9.8 nM; in assay [3] (setting [5]) it was 9.5 nM.
For `Cn1c(=O)c(C2CCOCC2)c2c3cc(-c4ccc(OCCCN5CCCCC5)nc4)ccc3ncn21` [Example 3, 9-(6-(3-(piperidin-1-yl)propoxy)pyridin-3-yl)-3-methyl-1-(tetrahydro-2H-pyran-4-yl)pyrazolo[1,5-c]quinazolin-2(3H)-one], the inhibition at 0.1 µM in assay [1] came to 66%. In assay [1] (C 1 μm), the inhibition at 1 µM amounted to 93%. Further, the inhibition at 10 µM in assay [1] (C 10 μm) is 98%. Besides, the half-inhibitory concentration (IC50) came to 6.22 nM in assay [2] (setting [4]) and 6 nM in assay [3] (setting [5]).
The matching figures for `CN(C)CCCOc1ccc(-c2ccc3ncn4c(c(C5CCOCC5)c(=O)n4C)c3c2)cc1C(F)(F)F` [Example 5, 9-(4-(3-(dimethylamino)propoxy)-3-(trifluoromethyl)phenyl)-3-methyl-1-(tetrahydro-2H-pyran-4-yl)pyrazolo[1,5-c]quinazolin-2(3H)-one]: 61%, 93%, 100%, 1.52 nM and 2.38 nM.
Consider `CN(C)C1CCN(c2ccc(-c3ccc4ncn5c(c(C6CCOCC6)c(=O)n5C)c4c3)cc2F)CC1` [Example 6, 9-(4-(4-(dimethylamino)piperidin-1-yl)-3-fluorophenyl)-3-methyl-1-(tetrahydro-2H-pyran-4-yl)pyrazolo[1,5-c]quinazolin-2(3H)-one], for which the inhibition at 0.1 µM in assay [1] is 57%. Also, in assay [1] (C 1 μm), the inhibition at 1 µM came to 94%. Besides, the inhibition at 10 µM in assay [1] (C 10 μm) came to 98%. For the same molecule, the figures for the IC50 in assay [2] (setting [4]) and in assay [3] (setting [5]) were 2.69 nM and 2.71 nM, respectively.
As to `CN(C)C1CCN(c2ccc(-c3ccc4ncn5c(c(C6CCOCC6)c(=O)n5C)c4c3)cc2Cl)CC1` [Example 7, 9-(3-chloro-4-(4-(dimethylamino)piperidin-1-yl)phenyl)-3-methyl-1-(tetrahydro-2H-pyran-4-yl)pyrazolo[1,5-c]quinazolin-2(3H)-one], the inhibition at 0.1 µM in assay [1] worked out at 61%. For the same molecule, the inhibition at 1 µM in assay [1] (C 1 μm) turned out to be 91%. Also, the inhibition at 10 µM in assay [1] (C 10 μm) is 96%. Further, the IC50 in assay [2] (setting [4]) came out at 3.16 nM; in assay [3] (setting [5]), 3.79 nM.
The matching figures for `CN(C)C1CCN(c2ccc(-c3ccc4ncn5c(c(C6CCOCC6)c(=O)n5C)c4c3)cc2C(F)(F)F)CC1` [Example 8, 9-(4-(4-(dimethylamino)piperidin-1-yl)-3-(trifluoromethyl)phenyl)-3-methyl-1-(tetrahydro-2H-pyran-4-yl)pyrazolo[1,5-c]quinazolin-2(3H)-one]: 86%, 99%, 100%, 2.1 nM and 2.65 nM.
As for `CNC1CCN(c2ccc(-c3ccc4ncn5c(c(C6CCOCC6)c(=O)n5C)c4c3)cc2C(F)(F)F)CC1` [Example 10, 9-(4-(4-(methylamino)piperidin-1-yl)-3-(trifluoromethyl)phenyl)-3-methyl-1-(tetrahydro-2H-pyran-4-yl)pyrazolo[1,5-c]quinazolin-2(3H)-one], the inhibition at 0.1 µM in assay [1] was 87%. Besides, the inhibition at 1 µM in assay [1] (C 1 μm) turned out to be 95%. Further, the inhibition at 10 µM in assay [1] (C 10 μm) was determined as 100%. In addition, the figures for the 50% inhibitory concentration (IC50) in assay [2] (setting [4]) and in assay [3] (setting [5]) were 1.46 nM and 2.27 nM, respectively.
Turning to `CCNC1CCN(c2ccc(-c3ccc4ncn5c(c(C6CCOCC6)c(=O)n5C)c4c3)cc2C(F)(F)F)CC1` [Example 11, 9-(4-(4-(ethylamino)piperidin-1-yl)-3-(trifluoromethyl)phenyl)-3-methyl-1-(tetrahydro-2H-pyran-4-yl)pyrazolo[1,5-c]quinazolin-2(3H)-one], the inhibition at 0.1 µM in assay [1] turned out to be 66%. In addition, the inhibition at 1 µM in assay [1] (C 1 μm) came out at 95%. Besides, the inhibition at 10 µM in assay [1] (C 10 μm) came to 100%. Besides, the half-inhibitory concentration (IC50) in assay [2] (setting [4]) turned out to be 4.82 nM; in assay [3] (setting [5]) it was 3.55 nM.
Regarding `CC(C)c1c(=O)n(C)n2cnc3ccc(-c4ccc(OCCCN(C)C)nc4)cc3c12` [Example 19, 9-(6-(3-(dimethylamino)propoxy)pyridin-3-yl)-1-isopropyl-3-methylpyrazolo[1,5-c]quinazolin-2(3H)-one], the half-maximal inhibitory concentration (IC50) amounted to 5.67 nM in assay [2] (Homo sapiens, SW-620, 120 h) and 5.55 nM in assay [3] (setting [6]).
In the case of `CC(C)c1c(=O)n(C)n2cnc3ccc(-c4ccc(OCCCN5CCCCC5)nc4)cc3c12` [Example 20, 9-(6-(3-(piperidin-1-yl)propoxy)pyridin-3-yl)-1-isopropyl-3-methyl-pyrazolo[1,5-c]quinazolin-2(3H)-one], the IC50 in assay [2] (Homo sapiens, SW-620, 120 h) came out at 3.48 nM; in assay [3] (setting [6]), 2.21 nM.
For the molecule `CC(C)c1c(=O)n(C)n2cnc3ccc(-c4ccc(N5CCC(N(C)C)CC5)c(F)c4)cc3c12` [Example 21, 9-(4-(4-(dimethylamino)piperidin-1-yl)-3-fluorophenyl)-1-isopropyl-3-methylpyrazolo[1,5-c]quinazolin-2(3H)-one], the IC50 in assay [2] (Homo sapiens, SW-620, 120 h) stood at 10.5 nM; in assay [3] (setting [6]), 7.22 nM.
Turning to `CC(C)c1c(=O)n(C)n2cnc3ccc(-c4ccc(N5CCC(N(C)C)CC5)c(Cl)c4)cc3c12` [Example 22, 9-(3-chloro-4-(4-(dimethylamino)piperidin-1-yl)phenyl)-1-isopropyl-3-methylpyrazolo[1,5-c]quinazolin-2(3H)-one], the IC50 was found to be 26.1 nM in assay [2] (Homo sapiens, SW-620, 120 h) and 22.9 nM in assay [3] (setting [6]).
For `CC(C)c1c(=O)n(C)n2cnc3ccc(-c4ccc(N5CCC(N(C)C)CC5)c(C(F)(F)F)c4)cc3c12` [Example 23, 9-(4-(4-(dimethylamino)piperidin-1-yl)-3-(trifluoromethyl)phenyl)-1-isopropyl-3-methylpyrazolo[1,5-c]quinazolin-2(3H)-one], the IC50 in assay [2] (Homo sapiens, SW-620, 120 h) is 8.49 nM; in assay [3] (setting [6]), 6.76 nM.
For `CC(C)c1c(=O)n(C)n2cnc3ccc(-c4ccc(OCCCN(C)C)c(F)c4)cc3c12` [Example 24, 9-(4-(3-(dimethylamino)propoxy)-3-fluorophenyl)-1-isopropyl-3-methylpyrazolo[1,5-c]quinazolin-2(3H)-one], in that order: 47.6 nM and 43.8 nM.
On to `CC(C)c1c(=O)n(C)n2cnc3ccc(-c4ccc(OCCCN(C)C)c(C(F)(F)F)c4)cc3c12` [Example 25, 9-(4-(3-(dimethylamino)propoxy)-3-(trifluoromethyl)phenyl)-1-isopropyl-3-methylpyrazolo[1,5-c]quinazolin-2(3H)-one], for which the half-inhibitory concentration (IC50) was 13.4 nM in assay [2] (Homo sapiens, SW-620, 120 h) and 13.5 nM in assay [3] (setting [6]).
